Measured values reported in patent US12162935B2, “Regimens, compositions and methods with capsaicin and TNF-alpha inhibitor” (priority 2018, dated 2024).

Key:
Wistar rats [1] = assay: ABR threshold shifts, noise induced hearing loss (NIHL); assay type: in vivo, rat
Experimental: Male Wistar rats (150-250 gm) were used for this study under an animal care protocol approved by the Laboratory and Animal Care and Use Committee (SIU School of Medicine). Pre-treatment ABRs were performed. Animals were then treated according to the experimental paradigm. Prevention strategy: consisted of administration of ETA either intra-tympanic ally (IT) (250 μg/50 μl) or subcutaneously (sc) (3 mg/kg) or PBS (IT-50 μl or sc-1 ml) either 3 days or 7 days prior to noise exposure (NE).
Animals were exposed to noise (NE), and then provided ETA treatments either IT or SC at either 2 h or 24 h post noise injury. Post treatment ABR thresholds were determined at 21 days post noise exposure and cochleae were excised for morphological, molecular and biochemical studies. Cochleae used for RNA preparations were flushed immediately with RNA later and kept in RNA later for 24 h at 4° C. Those used for immunohistochemical studies were perfused and fixed with 4% paraformaldehyde, while those used for Scanning electron microscopy (SEM) were perfused and fixed with 2.5% glutaraldehyde. Cochleae used for whole mounts were decalcified for 7-10 days in 100 mM EDTA at room temperature.
Male Wistar rats were exposed to octave band noise at 122 dB centered at 16 kHz for 1 h under isofluorane anesthesia, with the 3 inch silicon tubes attached to the high frequency transducer resting in the middle ear cavity. This exposure typically results in a 30-50 dB temporary threshold shift (measured as an immediate pre-to-post noise exposure shift in ABR thresholds) across all frequencies; with slightly more elevation at those frequencies around 16 kHz and 20-40 dB permanent threshold shift measured at 21 days post noise exposure at all frequencies. Acoustic stimuli are calibrated using a cloth model rat and a Bruel & Kjaer Pulse System with a ½ inch free-field microphone (B&K model 4191). Baseline noise levels in the test chamber (with background test noise turned off) are typically measured below 20 dB SPL in the 4-40 kHz range.
Pre-treatment ABR thresholds were determined using the high frequency Intelligent Hearing Systems (IHS) on naive rats prior to any treatment or noise exposure for each ear. Animals were tested with a stimulus intensity series that was initiated at 0 dB sound pressure level (SPL) and reached a maximum at 90 dB SPL. The stimulus intensity levels were increased in 10 dB increments, and the evoked ABR waveforms were observed on a video monitor. The auditory stimuli included tone bursts at 8, 16, and 32 kHz with a 10 msec plateau and a 1 msec rise/fall time presented at a rate of 5/sec. Threshold was defined as the lowest intensity capable of evoking a reproducible, visually detectable response with two distinct waveforms and minimum amplitude of 0.5 μV.
Preconditioning of the TRPV1 receptor in the rat cochlea by oral administration of capsaicin is shown here to protect from NIHL. Male Wistar rats weighing 200-250 gms were used. ABRs from naïve rats were recorded. Rats were then treated with oral phosphate buffered saline (PBS—1 ml) or capsaicin (1 ml of 20 mg/ml) starting 24 hrs prior to NE, on the day of NE, and 24 hrs post NE. The final ABRs were recorded 21 days post NE. Cochleae were collected for various biochemical tests and immunohistochemistry. At least 6 animals were used per treatment group. NE caused an ABR threshold shift of 21.6±1.7, 35.5±1.9 and 43.9±2.3 dB threshold shift at 8, 16 and 32 kHz respectively. Oral capsaicin treatment completely protects from NIHL (3.9±1.4, 6.1±1.8 and 8.9±2.1 dB threshold shift at 8, 16 and 32 kHz respectively), there is no significant change in ABR threshold shift compared to control. […] Statistical significance was calculated using one way ANOVA with Tukey's post-hoc analyses, p<0.05 (FIG. 16.A.).
ABR measurements were conducted in naïve male Wistar rats. […]

rat cochlea = assay: Cochlear gene expression by qPCR after noise exposure; assay type: in vivo
Experimental: Cochleae were pared down to the bone, crushed in liquid nitrogen followed by extraction in 500 μl of TRI reagent. 0.1 ml of chloroform was added, and the tube was shaken vigorously for 15 seconds and centrifuged at 12,000×g for 15 min. RNA was extracted by washing the pellet with 0.5 ml ice-cold isopropanol followed by cold 75% treated ethanol. The ethanol was removed and the tube was air dried briefly. The RNA pellet was resuspended in nuclease free water and RNA levels were determined using optical density readings corresponding to wavelengths of 260 nm, 280 and 320 nm using a spectrophotometer (Eppendorf BioPhotometer, Hamburg, Germany).
500 ng of total RNA was converted to cDNA using iScript cDNA Synthesis Kit (Bio-Rad, Hercules, CA). The reaction mixture was set up as follows: Ing of total RNA, 4 μl of iScript reaction mix, 1 μl of iScript reverse transcriptase, nuclease free water to bring the total volume to 20 μl. The reaction mix was incubated at 25° C. for 5 min, 42° C. for 30 minutes and 85° C. for 5 minutes. This cDNA reaction mix was used for real time PCR, as described previously [Mukherjea et al., 2006]. Gene specific primer pairs were used for the various reactions and mRNA expression levels were normalized to the levels of GAPDH. The primer sets were purchased from Sigma Genosys (St. Louis, MO), and were as follows: […]

Wistar rats [2] = assay: Restoration of hearing after permanent threshold shifts (Example 10B); assay type: in vivo, rat; settings: treatment after PTS at 4 weeks; oral capsaicin 5 mg/kg 3 days, ETA 1 mg/kg s.c. day 2, three weeks
Experimental: FIG. 23A is a schematic showing the experimental paradigm used in Example 10B. Pre-treatment baseline ABRs were performed in naïve male Wistar rats. The rats were then used either as sham controls (no noise exposure) or exposed-noise (122 dB, OBN centered at 16 kHz for 1 hour). Post noise exposure ABRs were repeated at 4 weeks to establish permanent threshold shifts (PTS). […] Final ABR threshold values were evaluated at week 9 post noise exposure.
Values shown in FIGS. 23A-23C and otherwise provided with respect to this Example 10B are expressed as the mean±SEM. Statistical significance was analyzed using the ANOVA and Tukey's host hoc analysis.

[3] = 25 mg ETA twice a week for 24 weeks; Matteson et al.; cited from earlier work
[4] = TT ETA rescue at 24 hours post NE
[5] = TT ETA rescue within 2 hours post NE
[6] = TT-ETA 250 μg/50 μl, 3 day pre-treatment, 21 days post NE
[7] = s.c. ETA rescue at 24 hours post NE
[8] = s.c. ETA rescue within 2 hours post NE
[9] = subcutaneous ETA 3 mg/kg, 3 day pre-treatment, 21 days post NE

Substance: etanercept
- increase in hearing threshold (hearing loss) (Wistar rats [1]; ETA pre-treatment sc or TT, 3 or 7 days prior to NE (FIG. 17.A)): 5-10 dB
- threshold shifts (Wistar rats [1]; TT ETA at 2 h post NE (FIG. 17.B)): 20-37.5 dB
- ABR threshold shift at 8 kHz (Wistar rats [1]; [4]): 22.5±2.9 dB
- ABR threshold shift at 16 kHz (Wistar rats [1]; [4]): 31.25±3.2 dB
- ABR threshold shift at 32 kHz (Wistar rats [1]; [4]): 37.5±3.7 dB
- ABR threshold shift at 8 kHz (Wistar rats [1]; [5]): 20±2.6 dB
- ABR threshold shift at 16 kHz (Wistar rats [1]; [5]): 30±2.7 dB
- ABR threshold shift at 32 kHz (Wistar rats [1]; [5]): 33.75±2.7 dB
- ABR threshold shift at 8 kHz (Wistar rats [1]; TT ETA, 7 day pretreatment): 16.25±3.25 dB
- ABR threshold shift at 16 kHz (Wistar rats [1]; TT ETA, 7 day pretreatment): 16.25±3.75 dB
- ABR threshold shift at 32 kHz (Wistar rats [1]; TT ETA, 7 day pretreatment): 16.25±4.6 dB
- ABR threshold shift at 8 kHz (Wistar rats [1]; [6]): 1.25±1.25 dB
- ABR threshold shift at 16 kHz (Wistar rats [1]; [6]): 0 dB
- ABR threshold shift at 32 kHz (Wistar rats [1]; [6]): 3.75±1.8 dB
- Wave 1 amplitude versus sound intensity (Wistar rats [1]; capsaicin 5 mg/kg oral, ETA 1 mg/kg, noise exposure (FIG. 18.B)): partial restoration
- ABR threshold shift at 8 kHz (Wistar rats [1]; s.c ETA, 7 day pretreatment): 12.5±3.6 dB
- ABR threshold shift at 16 kHz (Wistar rats [1]; s.c ETA, 7 day pretreatment): 15±5 dB
- ABR threshold shift at 32 kHz (Wistar rats [1]; s.c ETA, 7 day pretreatment): 16.25±5.3 dB
- ABR threshold shift at 8 kHz (Wistar rats [1]; [7]): 21.25±3.9 dB
- ABR threshold shift at 16 kHz (Wistar rats [1]; [7]): 22.5±4.9 dB
- ABR threshold shift at 32 kHz (Wistar rats [1]; [7]): 26.25±5.6 dB
- ABR threshold shift at 8 kHz (Wistar rats [1]; [8]): 9.16±2.6 dB
- ABR threshold shift at 16 kHz (Wistar rats [1]; [8]): 15.8±4.5 dB
- ABR threshold shift at 32 kHz (Wistar rats [1]; [8]): 20.8±6.0 dB
- ABR threshold shift at 8 kHz (Wistar rats [1]; [9]): 4±1.6 dB
- ABR threshold shift at 16 kHz (Wistar rats [1]; [9]): 8±2.5 dB
- ABR threshold shift at 32 kHz (Wistar rats [1]; [9]): 11±18 dB
- threshold shift (Wistar rats [1]; subcutaneous ETA at 2 h post NE (FIG. 17.B)): 10-25 dB
- TRPV1, TNF-α and COX2 expression (rat cochlea; ETA rescue by TT injection at 24 hours): unable to decrease the TRPV1, TNF-α and COX2 to basal levels
- NE induced up regulation of TRPV1, TNF-α, NOX3, COX2, iNOS and Bax (rat cochlea; pretreatment with ETA): prevents the NE induced up regulation
- average hearing threshold shifts at 9 weeks (Wistar rats [2]): 25-38 dB
- side effects [3]: no side effects
